Values after ≈ are worked out from the molar mass of the structure shown.
Tests used:
[1] = Solubility of axitinib prodrugs in phosphate buffer saline (Example 7); type: physicochemical; conditions: phosphate buffer saline (PBS, pH-7.40)
Experimental: Axitinib prodrugs of the present invention were tested for solubility in phosphate buffer saline (PBS, pH-7.40).

[2] = Stability in phosphate buffer saline (Example 8); type: physicochemical; conditions: PBS, pH-7.40; for remaining at 24 h / remaining at 72 h / remaining at 168 h: phosphate buffer saline, pH 7.4, read-out: % remaining compared to Day 0; for remaining at 24 h: Day 1; for remaining at 72 h: Day 3; for remaining at 168 h: Day 7
Experimental: Axitinib prodrugs of the present invention were tested for stability in phosphate buffer saline (PBS, pH-7.40).

[3] = Solubility of axitinib and prodrug in phosphate buffer saline pH 7.4, 24 hour at 22 °C (Example 2); type: physicochemical
Experimental: Solubility testing was performed with the following test items and conditions: • Test items: axitinib (99.99% purity by HPLC); axitinib-N-mPEG-succinoyloxymethyl prodrug (93.6% purity by HPLC) • Test media: phosphate buffer saline pH 7.4 • Incubation condition: 24 hour at 22 °C with continuous shaking • Test concentration: 1 mg/mL • Data analysis: Solubility of test item was determined by HPLC analysis with calibration curve

[4] = cited from earlier work
[5] = Particle size after micronization (Example 6); type: physicochemical; conditions: micronized
Excerpt: The micronization of the axitinib-N-m (PEG)2-oxymethyl prodrug obtained in Example 6 in a dry dispersion was D90=12.4 μm; D50=3.6 μm and D10=0.6 μm and dispersed in water was D90=12.2 μm; D50=5.2 μm and D10=1.1 μm.

[6] = phosphate buffer saline pH 7.4, 24 hour at 22 °C, continuous shaking, test concentration 1 mg/mL, HPLC

Compound	solubility [1]	% remaining compared to Day 0 [2] [%]	remaining at 24 h [2] [%]	remaining at 72 h [2] [%]	remaining at 168 h [2] [%]	solubility ([1]; pH 7.4, read-out: Solubility) [µg/mL]	other results
CNC(=O)c1ccccc1Sc1ccc2c(/C=C/c3ccccn3)nn(COC(=O)CCOC)c2c1 [Axitinib-N-m(PEG)1-oxymethyl prodrug]	Not Soluble	100.00	38.8	6.7	5	–	–
axitinib-N-mPEG-succinoyloxymethyl [N-mPEG succinoyloxymethyl Prodrug]	99.37 µg/mL	–	–	–	–	–	solubility [3, 6]: 99.37 µg/mL; solubility enhancement of prodrug ([3]; versus axitinib): ~ 500 ×
CNC(=O)c1ccccc1Sc1ccc2c(/C=C/c3ccccn3)n[nH]c2c1 [Axitinib, axitinib, reference compound]	–	100.00	96.7	96.2	91.8	–	solubility at 24 h [3, 6]: < 0.78 µg/mL; literature reported solubility [4]: about 0.2 mcg/mL
CNC(=O)c1ccccc1Sc1ccc2c(/C=C/c3ccccn3)nn(COC(=O)CCOCCOCCOC)c2c1 [Axitinib-N-m(PEG)3-oxymethyl prodrug]	–	100.00	53.9	24	12.7	6.16 (≈ 10.4 µM)	–
CNC(=O)c1ccccc1Sc1ccc2c(/C=C/c3ccccn3)nn(COC(=O)CCC(=O)O)c2c1 [Axitinib-N-Succinoyloxymethyl Prodrug]	–	–	–	–	–	217 (≈ 421 µM)	–
CNC(=O)c1ccccc1Sc1ccc2c(/C=C/c3ccccn3)nn(COC(=O)CCOCCOC)c2c1 [Axitinib-N-m(PEG)2-oxymethyl prodrug]	–	100.00	45.9	30.5	16.9	1.1 (≈ 2.01 µM)	D10 ([5]; dispersed in water): 1.1 μm; D50 ([5]; dispersed in water): 5.2 μm; D90 ([5]; dispersed in water): 12.2 μm; D10 ([5]; dry dispersion): 0.6 μm; D50 ([5]; dry dispersion): 3.6 μm; D90 ([5]; dry dispersion): 12.4 μm
